The record followed here is US9932340B2, “Substituted indoles” (AbbVie Inc., priority 2014, dated 2018).

For this assay, the target named is SUV420H1 enzyme (Homo sapiens, UniProt Q4FZB7). Kind of assay: TR-FRET SAH SUV420H1 enzyme inhibition assay. Conditions: Histone Peptide H4(8-30)me1 and SAM, overnight at room temp, TR-FRET detection of SAH, read-out: TR-FRET SAH_SUV420H1 IC50. Format: biochemical. Here is the method: Test compounds were dispensed by a Labcyte Echo in 384-well low volume assay plates with 3-fold serial dilutions from 50 μM to 0.00075 μM. 5 μL of SUV420H1 enzyme (Abbvie) at 90 nM was added to all wells except the no enzyme control wells, and incubated for 30 minutes at room temp before 5 μL of Histone Peptide H4(8-30)me1 (Anaspec) at 5 nM and SAM at 4 nM was added to all wells. The plates were incubated in a humidified chamber overnight at room temp and then 10 μL of the detection reagent that contained RIPA buffer (50 mM Tris-HCl, pH 8.0, 150 mM sodium chloride, 1.0% Igepal CA-630 (NP-40), 0.5% sodium deoxycholate and 0.1% sodium dodecyl sulfate) (Sigma) with 2 nM of Terbium chelate anti S-adenosyl-L-homocysteine (SAH) (Abbvie) antibody and Oregon Green labeled SAH at 4 nM was added. The plates were further incubated for 4 hours at room temperature. The plates were read in a Perkin Elmer Envision using a TR-FRET protocol with Excitation set at 335 nm and Emission at 520 and 495 nm. To generate dose response curves the data is normalized to percent inhibition by setting the average of the plus and minus enzyme control wells to 0% and 100% inhibition respectively. The IC50 values for the compounds are generated by fitting the normalized data with Accelrys Assay Explorer 3.3 to a sigmoidal curve model using […] regression, Y=(100*x^n)/(K^n+x^n), where Y is the measured response, x is the compound concentration, n is the Hill Slope and K is the IC50 and the lower and higher asymptotes are constrained to 0 and 100 respectively.
SUV420H1 enzyme, sequence (Q4FZB7 whole entry): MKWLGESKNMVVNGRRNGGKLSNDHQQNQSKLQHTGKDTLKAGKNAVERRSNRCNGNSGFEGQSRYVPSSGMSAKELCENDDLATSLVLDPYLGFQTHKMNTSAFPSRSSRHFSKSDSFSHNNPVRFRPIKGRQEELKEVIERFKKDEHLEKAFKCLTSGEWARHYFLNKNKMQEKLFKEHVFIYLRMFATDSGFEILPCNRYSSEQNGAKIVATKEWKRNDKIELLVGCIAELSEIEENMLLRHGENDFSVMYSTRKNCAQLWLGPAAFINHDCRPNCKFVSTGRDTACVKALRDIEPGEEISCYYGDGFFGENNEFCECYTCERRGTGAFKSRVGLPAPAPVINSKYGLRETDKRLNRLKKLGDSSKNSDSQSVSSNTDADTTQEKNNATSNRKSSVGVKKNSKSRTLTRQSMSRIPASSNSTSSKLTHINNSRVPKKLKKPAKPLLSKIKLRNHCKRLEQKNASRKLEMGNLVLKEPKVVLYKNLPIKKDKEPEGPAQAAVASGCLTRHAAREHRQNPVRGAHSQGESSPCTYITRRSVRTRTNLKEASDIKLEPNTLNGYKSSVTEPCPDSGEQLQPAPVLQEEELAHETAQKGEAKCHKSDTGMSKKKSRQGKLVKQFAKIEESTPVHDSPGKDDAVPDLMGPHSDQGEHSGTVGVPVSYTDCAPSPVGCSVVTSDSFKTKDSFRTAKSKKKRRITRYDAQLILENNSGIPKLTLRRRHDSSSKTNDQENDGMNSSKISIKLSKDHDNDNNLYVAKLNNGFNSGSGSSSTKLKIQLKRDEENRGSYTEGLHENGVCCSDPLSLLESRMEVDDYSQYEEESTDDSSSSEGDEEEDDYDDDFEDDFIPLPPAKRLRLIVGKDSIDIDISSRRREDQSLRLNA
For `CC(C)c1ccc(Cn2cnc3c(N)ncnc32)c2[nH]c(CN)cc12` [Example 66, 9-{[2-(aminomethyl)-4-(propan-2-yl)-1H-indol-7-yl]methyl}-9H-purin-6-amine], the IC50 was determined as 4.29 µM.

Take `CS(=O)(=O)c1ccc(-c2ccc(Cn3cnc4c(N)ncnc43)c3[nH]c(CN)cc23)cc1` [Example 81, 9-({2-(aminomethyl)-4-[4-(methylsulfonyl)phenyl]-1H-indol-7-yl}methyl)-9H-purin-6-amine]: the concentration for half-maximal inhibition (IC50) came out at 0.334 µM.

With `Nc1ncnc2c1ncn2Cc1cc(Cl)cc2cc(CNC(=O)c3ccccc3OC(F)F)[nH]c12` [Example 261, N-({7-[(6-amino-9H-purin-9-yl)methyl]-5-chloro-1H-indol-2-yl}methyl)-2-(difluoromethoxy)benzamide], the IC50 stood at 1.99 µM.

For the compound `CN(C)C(=O)c1cccc(-c2cc(Cn3cnc4c(N)ncnc43)c3[nH]c(CN)cc3c2)c1` [Example 48, 3-{2-(aminomethyl)-7-[(6-amino-9H-purin-9-yl)methyl]-1H-indol-5-yl}-N,N-dimethylbenzamide], the 50% inhibitory concentration (IC50) is 1.33 µM.

As to `NCc1cc2c(-c3ccccc3)ccc(Cn3cnc4c(N)ncnc43)c2[nH]1` [Example 70, 9-{[2-(aminomethyl)-4-phenyl-1H-indol-7-yl]methyl}-9H-purin-6-amine], the IC50 came to 1 µM.

As for `Cc1ccc(C(=O)NCc2cc3cc(Cl)cc(Cn4cnc5c(N)ncnc54)c3[nH]2)cc1` [Example 246, N-({7-[(6-amino-9H-purin-9-yl)methyl]-5-chloro-1H-indol-2-yl}methyl)-4-methylbenzamide], the half-maximal inhibitory concentration (IC50) is 7.29 µM.

Turning to `Nc1ncnc2c1ncn2Cc1cc(Cl)cc2cc(CNCc3cc(F)cc(Cl)c3)[nH]c12` [Example 216, 9-[(5-chloro-2-{[(3-chloro-5-fluorobenzyl)amino]methyl}-1H-indol-7-yl)methyl]-9H-purin-6-amine], the 50% inhibitory concentration (IC50) amounted to 2.47 µM.

In the case of `COc1cccc(-c2cc(Cn3cnc4c(N)ncnc43)c3[nH]c(CNC(=O)c4c(C)noc4C)cc3c2)c1` [Example 169, N-({7-[(6-amino-9H-purin-9-yl)methyl]-5-(3-methoxyphenyl)-1H-indol-2-yl}methyl)-3,5-dimethyl-1,2-oxazole-4-carboxamide], the half-maximal inhibitory concentration (IC50) worked out at 0.0801 µM.

Regarding `Cc1noc(C)c1C(=O)NCc1cc2cc(-c3cccc(C#N)c3)cc(Cn3cnc4c(N)ncnc43)c2[nH]1` [Example 172, N-({7-[(6-amino-9H-purin-9-yl)methyl]-5-(3-cyanophenyl)-H-indol-2-yl}methyl)-3,5-dimethyl-1,2-oxazole-4-carboxamide], the IC50 was found to be 0.0661 µM.

Regarding `CC(=O)N1CCC=C(c2cc(Cn3cnc4c(N)ncnc43)c3[nH]c(CNC(=O)c4cc(C)nnc4C)cc3c2)C1` [Example 238], the 50% inhibitory concentration (IC50) came out at 0.0457 µM.

As to `Cc1noc(C)c1C(=O)NCc1cc2cc(-c3ccc(CC#N)cc3)cc(Cn3cnc4c(N)ncnc43)c2[nH]1` [Example 175, N-({7-[(6-amino-9H-purin-9-yl)methyl]-5-[4-(cyanomethyl)phenyl]-1H-indol-2-yl}methyl)-3,5-dimethyl-1,2-oxazole-4-carboxamide], the concentration for half-maximal inhibition (IC50) came out at 0.0828 µM.

In the case of `NCc1cc2cc(-c3cccc(C(=O)N4CCOCC4)c3)cc(Cn3cnc4c(N)ncnc43)c2[nH]1` [Example 53, (3-{2-(aminomethyl)-7-[(6-amino-9H-purin-9-yl)methyl]-1H-indol-5-yl}phenyl)(morpholin-4-yl)methanone], the IC50 was determined as 0.59 µM.

As to `Nc1ncnc2c1ncn2Cc1cc(Cl)cc2cc(CNC(=O)c3ccc4nc(O)sc4c3)[nH]c12` [Example 341], the IC50 worked out at 3.03 µM.

As to `NCc1cc2cc(-c3cccc(C(N)=O)c3)cc(Cn3cnc4c(N)ncnc43)c2[nH]1` [Example 40, 3-{2-(aminomethyl)-7-[(6-amino-9H-purin-9-yl)methyl]-1H-indol-5-yl}benzamide], the IC50 worked out at 0.425 µM.

With `CC1(C(=O)NCc2cc3cc(Cl)cc(Cn4cnc5c(N)ncnc54)c3[nH]2)CC1` [Example 108, N-({7-[(6-amino-9H-purin-9-yl)methyl]-5-chloro-1H-indol-2-yl}methyl)-1-methylcyclopropanecarboxamide], the IC50 is 17 µM.

For the compound `N#Cc1ccc(C(=O)NCc2cc3c(Cl)ccc(Cn4cnc5c(N)ncnc54)c3[nH]2)c(Cl)c1` [Example 282, N-({7-[(6-amino-9H-purin-9-yl)methyl]-4-chloro-1H-indol-2-yl}methyl)-2-chloro-4-cyanobenzamide], the IC50 was found to be 0.0723 µM.

As for `CCc1nc2ccc(C(=O)NCc3cc4cc(Cl)cc(Cn5cnc6c(N)ncnc65)c4[nH]3)cc2[nH]1` [Example 368, N-({7-[(6-amino-9H-purin-9-yl)methyl]-5-chloro-1H-indol-2-yl}methyl)-2-ethyl-1H-benzimidazole-6-carboxamide], the IC50 was found to be 7.61 µM.

Consider `Cc1ccc(-c2cc(Cn3cnc4c(N)ncnc43)c3[nH]c(CNC(=O)c4c(C)noc4C)cc3c2)cc1` [Example 167, N-({7-[(6-amino-9H-purin-9-yl)methyl]-5-(4-methylphenyl)-1H-indol-2-yl}methyl)-3,5-dimethyl-1,2-oxazole-4-carboxamide], for which the 50% inhibitory concentration (IC50) was 0.225 µM.

Take `Nc1ncnc2c1ncn2Cc1cc(Cl)cc2cc(CNCc3ccc(Cl)c(Cl)c3)[nH]c12` [Example 213, 9-[(5-chloro-2-{[(3,4-dichlorobenzyl)amino]methyl}-1H-indol-7-yl)methyl]-9H-purin-6-amine]: the IC50 was 2.76 µM.

As for `Nc1ncnc2c1ncn2Cc1cc(Cl)cc2cc(CNC(=O)C3CCCO3)[nH]c12` (centres unmarked) [Example 113, N-({7-[(6-amino-9H-purin-9-yl)methyl]-5-chloro-1H-indol-2-yl}methyl)tetrahydrofuran-2-carboxamide], the half-inhibitory concentration (IC50) was more than 50 µM.

In the case of `COCC(=O)NCc1cc2cc(Cl)cc(Cn3cnc4c(N)ncnc43)c2[nH]1` [Example 95, N-({7-[(6-amino-9H-purin-9-yl)methyl]-5-chloro-1H-indol-2-yl}methyl)-2-methoxyacetamide], the IC50 is more than 50 µM.

Regarding `COc1cscc1C(=O)NCc1cc2cc(Cl)cc(Cn3cnc4c(N)ncnc43)c2[nH]1` [Example 158, N-({7-[(6-amino-9H-purin-9-yl)methyl]-5-chloro-1H-indol-2-yl}methyl)-4-methoxythiophene-3-carboxamide], the half-maximal inhibitory concentration (IC50) is 4.75 µM.

Consider `NCc1cc2cc(-c3ccc(S(N)(=O)=O)cc3)cc(Cn3cnc4c(N)ncnc43)c2[nH]1` [Example 29, 4-{2-(aminomethyl)-7-[(6-amino-9H-purin-9-yl)methyl]-1H-indol-5-yl}benzenesulfonamide], for which the IC50 is 0.252 µM.

In the case of `Nc1ncnc2c1ncn2Cc1cc(Cl)cc2cc(CNC(=O)c3ccc4ncoc4c3)[nH]c12` [Example 338, N-({7-[(6-amino-9H-purin-9-yl)methyl]-5-chloro-1H-indol-2-yl}methyl)-1,3-benzoxazole-6-carboxamide], the IC50 was determined as 2.85 µM.

For `CN1CCN(Cc2cccc(-c3cc(Cn4cnc5c(N)ncnc54)c4[nH]c(CN)cc4c3)c2)CC1` [Example 55, 9-{[2-(aminomethyl)-5-{3-[(4-methylpiperazin-1-yl)methyl]phenyl}-1H-indol-7-yl]methyl}-9H-purin-6-amine], the IC50 was determined as 0.293 µM.

In the case of `COc1ccccc1C(=O)NCc1cc2cc(Cl)cc(Cn3cnc4c(N)ncnc43)c2[nH]1` [Example 260, N-({7-[(6-amino-9H-purin-9-yl)methyl]-5-chloro-1H-indol-2-yl}methyl)-2-methoxybenzamide], the IC50 came out at 3.55 µM.
